In article PMC10709440, “High-throughput ligand profile characterization in novel cell lines expressing seven heterologous insect olfactory receptors for the detection of volatile plant biomarkers” (Scientific Reports, 2023):
Read-outs that look alike come from different tables or passages of the source.

Columns and labels:
Drosophila OR49b = molecular target: T1, Drosophila OR49b (Drosophila melanogaster, UniProt Q9V6H2); experiment: cell-based; conditions: for activation at 1 µM / activation at 10 µM / activation at 100 µM: HEK293; for Average response / OR49b response (VUAA1-normalized) at 1 μM / OR49b response (VUAA1-normalized) at 10 μM / OR49b response (VUAA1-normalized) at 100 μM: OR49b cell line; for Average response: mean of biological replicates
T1 construct: expressed in transfected cells
T1 sequence (Q9V6H2 1-375): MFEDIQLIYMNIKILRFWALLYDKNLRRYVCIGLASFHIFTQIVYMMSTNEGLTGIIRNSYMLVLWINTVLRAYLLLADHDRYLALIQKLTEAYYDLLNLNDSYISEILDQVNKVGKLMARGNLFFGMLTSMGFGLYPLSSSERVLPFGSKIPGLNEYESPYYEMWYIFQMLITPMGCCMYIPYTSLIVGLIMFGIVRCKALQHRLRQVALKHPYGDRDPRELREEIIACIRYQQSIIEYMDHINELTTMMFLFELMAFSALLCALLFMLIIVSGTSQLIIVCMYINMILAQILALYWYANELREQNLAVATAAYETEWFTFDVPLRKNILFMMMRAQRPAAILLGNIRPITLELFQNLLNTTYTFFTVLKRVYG
T1 sequence (Q9VNB5 1-486 partner): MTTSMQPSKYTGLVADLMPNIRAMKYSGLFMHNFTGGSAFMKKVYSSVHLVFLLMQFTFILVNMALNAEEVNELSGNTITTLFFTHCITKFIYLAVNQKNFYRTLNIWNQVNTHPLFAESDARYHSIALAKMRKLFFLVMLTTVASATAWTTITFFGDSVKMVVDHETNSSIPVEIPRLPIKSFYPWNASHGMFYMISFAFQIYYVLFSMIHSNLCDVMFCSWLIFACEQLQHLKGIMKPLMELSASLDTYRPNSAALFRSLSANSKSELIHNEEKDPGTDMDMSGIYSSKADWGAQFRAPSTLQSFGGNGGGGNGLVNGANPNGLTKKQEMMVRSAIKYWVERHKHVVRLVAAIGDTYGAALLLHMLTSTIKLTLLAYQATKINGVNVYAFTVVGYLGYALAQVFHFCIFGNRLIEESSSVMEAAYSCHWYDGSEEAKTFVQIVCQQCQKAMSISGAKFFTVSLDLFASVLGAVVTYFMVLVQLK
How it was run: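 Responses are VUAA1-normalized ΔF: each VOC-evoked calcium signal, (FMAX−F0)/F0 over 30 s after injection, divided by the same line's mean 50 µM VUAA1 response. Cells were doxycycline-induced HEK293 with GCaMP6 and the cognate Drosophila OR, in HEPES buffer pH 7.3; ligands tested 0.01–100 μM.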

Drosophila OR71a = molecular target: T2, Drosophila OR71a (Drosophila melanogaster, UniProt Q9VUK5); experiment: Calcium ion fluorescence (GCaMP6) assay, OR71a stable HEK293 cell line; assay type: cell-based; conditions: for activation at 1 µM / activation at 10 µM / activation at 100 µM: HEK293, read-out: OR71a response (VUAA1-normalized response); for Average response / OR71a response (VUAA1-normalized) at 1 μM / OR71a response (VUAA1-normalized) at 10 μM / OR71a response (VUAA1-normalized) at 100 μM: OR71a cell line; for Average response: VUAA1-normalized response, mean of biological replicates
T2 construct: expressed in transfected cells
T2 sequence (Q9VUK5 1-378): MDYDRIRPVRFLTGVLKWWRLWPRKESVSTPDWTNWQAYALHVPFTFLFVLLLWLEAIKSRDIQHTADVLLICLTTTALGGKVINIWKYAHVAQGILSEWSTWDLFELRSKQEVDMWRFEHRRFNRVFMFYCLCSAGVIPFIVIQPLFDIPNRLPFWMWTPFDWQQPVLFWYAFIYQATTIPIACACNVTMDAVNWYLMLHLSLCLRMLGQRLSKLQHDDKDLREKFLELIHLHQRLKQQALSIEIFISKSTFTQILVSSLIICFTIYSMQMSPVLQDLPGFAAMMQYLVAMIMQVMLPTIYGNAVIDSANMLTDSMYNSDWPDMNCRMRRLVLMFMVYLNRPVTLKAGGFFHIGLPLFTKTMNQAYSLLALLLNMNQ
T2 sequence (Q9VNB5 1-486 partner): T1 sequence (Q9VNB5 1-486 partner)
Procedure: These VUAA1 normalized ∆F values were used to compare the different receptors and ligands.
The concentration-dependent effect of the reference ligands on their cognate cell lines was examined in more detail. Twelve different ligand concentrations were measured on each cell line in an overall 0.01 μM to 100 μM concentration range with 5 repetitions with three technical replicates each time.
Twelve thousand to 18,000 cells were plated into each well of a black wall, transparent bottom 384-well microplate (Greiner) 48 h or 72 h before the measurements and were simultaneously treated with 1 μg/mL doxycycline. […] The plate has 24 columns, thus we could record responses in up to eight different cell lines in each plate. On the day of the experiment, the growth medium was replaced with 20 µL assay buffer/well (140 mM NaCl, 5 mM KCl, 2 mM CaCl2, 1 mM MgCl2, 5 mM HEPES-Na, 20 mM glucose, pH 7.3, 340 mOsm). […] Baseline fluorescence (F0) was recorded for 5 s, after which 7 µL VOC buffer (140 mM NaCl, 5 mM KCl, 2 mM CaCl2, 1 mM MgCl2, 5 mM HEPES-Na, 31 mM glucose, 0.1% DMSO, pH 7.3, 340 mOsm) was injected into each well in one row and the fluorescence response was recorded for an additional 30 s, at a rate of one read/sec. VOC solutions (VOC buffer with 4× concentration of the final measured VOC concentration, 9 µL/well was injected) were measured on the same wells in a second round with the same protocol. Each individual concentration of a specific VOC sample was recorded in three wells for the same cell line on the same microplate. The raw data were exported in xls file format, F0 and FMAX values, and the fluorescence intensity changes (∆F) were calculated in Excel (Microsoft) (Supplementary file Data summary.xlsx) using the following equation: ΔF=FMAX-F0/F0 (see also Fig. 1C). On each plate, we recorded the response of each cell line to 50 µM VUAA1. The average of these ∆F values of each cell line were used to calculate the VUAA1-normalized values for the rest of the plate, by dividing VOC response ∆F values by the average VUAA1 response ∆F value of the corresponding OR cell line. Each VOC-OR combination was measured three times as technical replicates. […] The average of these replicates were used as one ∆F and VUAA1-normalized ∆F in the following analysis.
In the next rows we tested the reference VOCs (or other VOCs known to activate the corresponding cell lines), in order to test if all cell lines are responsive. The remaining rows were used to test VOCs with unknown effect.
The recorded FMAX, F0, ∆F, VUAA1-normalized ∆F values, as well as the OR name, the name of the tested sample, and the final concentration for each well were copied into supplementary file Data summary.xlsx, that was used to summarize all the plates recorded. Here, the averages of the measurements were calculated for each receptor-VOC-concentration combination.

[1] = VOC concentration 1 μM, read-out: OR49b response (VUAA1-normalized response)
[2] = VOC concentration 10 μM, read-out: OR49b response (VUAA1-normalized response)
[3] = VOC concentration 100 μM, read-out: OR49b response (VUAA1-normalized response)
[4] = ligand concentration 1 (unit not given), threshold 0.05, below shown as 0
[5] = ligand concentration 10 (unit not given), threshold 0.05, below shown as 0
[6] = ligand concentration 100 (unit not given), threshold 0.05, below shown as 0
[7] = concentration 1, normalized fluorescence change, values below 0.05 threshold given as 0
[8] = concentration 10, normalized fluorescence change, values below 0.05 threshold given as 0
[9] = concentration 100, normalized fluorescence change, values below 0.05 threshold given as 0

Row | SMILES | activation at 1 µM (Drosophila OR49b; [1]) [%] | activation at 10 µM (Drosophila OR49b; [2]) [%] | activation at 100 µM (Drosophila OR49b; [3]) [%] | Average response (Drosophila OR49b; odorant cc. 1 µM) | Average response (Drosophila OR49b; odorant cc. 10 µM) | Average response (Drosophila OR49b; odorant cc. 100 µM) | DF norm AVERAGE OR49b (Drosophila OR49b; [4]) | DF norm AVERAGE OR49b (Drosophila OR49b; [5]) | DF norm AVERAGE OR49b (Drosophila OR49b; [6]) | activation at 1 µM (Drosophila OR71a) [%] | activation at 10 µM (Drosophila OR71a) [%] | activation at 100 µM (Drosophila OR71a) [%] | Average response (Drosophila OR71a; cc. 1 µM) | Average response (Drosophila OR71a; cc. 10 µM) | Average response (Drosophila OR71a; cc. 100 µM) | DF norm AVERAGE OR71a (Drosophila OR71a; [4]) | DF norm AVERAGE OR71a (Drosophila OR71a; [5]) | DF norm AVERAGE OR71a (Drosophila OR71a; [6]) | OR49b response (VUAA1-normalized) at 1 μM (Drosophila OR49b; VOC concentration 1 μM) | OR49b response (VUAA1-normalized) at 10 μM (Drosophila OR49b; VOC concentration 10 μM) | also measured
1 | O=Cc1ccccc1 [benzaldehyde] | 0 | 0 | 23 | 0.00 | 0.0283 | 0.23 | 0 | 0 | 0.2265 | 0 | 0 | 0 | 0.03 | 0.00 | 0.00 | 0 | 0 | 0 |  |  | activation at 1 µM (Drosophila OR49b; 1 μM VOC, 50 μM VUAA1 = 1, read-out: OR49b Average response (VUAA1-normalized)): 0%; activation at 10 µM (Drosophila OR49b; 10 μM VOC, 50 μM VUAA1 = 1, read-out: OR49b Average response (VUAA1-normalized)): 3%; activation at 100 µM (Drosophila OR49b; 100 μM VOC, 50 μM VUAA1 = 1, read-out: OR49b Average response (VUAA1-normalized)): 23%
2 | CCCCCOC(C)=O [pentyl acetate] |  |  |  | 0.08 | 0.0108 | 0.06 | 0.07954 | 0 | 0.06097 |  |  |  | 0.00 | 0.0163 | 0.09 | 0 | 0 | 0.08698 | 0.08 | 0.00 | OR49b response (VUAA1-normalized) at 100 μM (Drosophila OR49b; VOC concentration 100 μM): 0.06; OR71a response (VUAA1-normalized) at 1 μM (Drosophila OR71a; VOC concentration 1 μM): 0.00; OR71a response (VUAA1-normalized) at 10 μM (Drosophila OR71a; VOC concentration 10 μM): 0.00; OR71a response (VUAA1-normalized) at 100 μM (Drosophila OR71a; VOC concentration 100 μM): 0.09
3 | CCCOC(C)=O [propyl acetate] |  |  |  | 0.00 | 0.00 | 0.014 | 0 | 0 | 0 |  |  |  | 0.0434 | 0.025 | 0.00 | 0 | 0 | 0 | 0.00 | 0.00 | OR49b response (VUAA1-normalized) at 100 μM (Drosophila OR49b; VOC concentration 100 μM): 0.00; OR71a response (VUAA1-normalized) at 1 μM (Drosophila OR71a; VOC concentration 1 μM): 0.00; OR71a response (VUAA1-normalized) at 10 μM (Drosophila OR71a; VOC concentration 10 μM): 0.00; OR71a response (VUAA1-normalized) at 100 μM (Drosophila OR71a; VOC concentration 100 μM): 0.00
4 | CCCCCC(=O)CC [3-octanone] | 0 | 17 | 0 | 0.0421 | 0.17 | 0.0439 |  |  |  | 0 | 0 | 0 | 0.00 | 0.00 | 0.00 |  |  |  |  |  | DF norm AVERAGE OR71a (Drosophila OR71a; [7]): 0; DF norm AVERAGE OR71a (Drosophila OR71a; [8]): 0; DF norm AVERAGE OR71a (Drosophila OR71a; [9]): 0
5 | C=C(C)C1CCC2(C)OC2C1 (single isomer, unassigned; (+)) [(+)-limonene oxide] |  |  |  | 0.00 | 0.00 | 0.00 |  |  |  |  |  |  | 0.0247 | 0.0256 | 0.00 |  |  |  |  |  | DF norm AVERAGE OR49b (Drosophila OR49b): 0; OR49b response (VUAA1-normalized response) (Drosophila OR49b; VOC concentration 1 μM): 0.00; OR49b response (VUAA1-normalized response) (Drosophila OR49b; VOC concentration 10 μM): 0.00; OR49b response (VUAA1-normalized response) (Drosophila OR49b; VOC concentration 100 μM): 0.00; OR71a response (VUAA1-normalized response) (Drosophila OR71a; VOC concentration 1 μM): 0.00; OR71a response (VUAA1-normalized response) (Drosophila OR71a; VOC concentration 10 μM): 0.00; OR71a response (VUAA1-normalized response) (Drosophila OR71a; VOC concentration 100 μM): 0.00; DF norm AVERAGE OR71a (Drosophila OR71a; [7]): 0; DF norm AVERAGE OR71a (Drosophila OR71a; [8]): 0; DF norm AVERAGE OR71a (Drosophila OR71a; [9]): 0
6 | CC/C=C\CCOC(C)=O [Z-3-hexenyl acetate] |  |  |  |  |  |  |  |  |  |  |  |  |  |  |  |  |  |  | 0.00 | 0.00 | OR49b response (VUAA1-normalized) at 100 μM (Drosophila OR49b; VOC concentration 100 μM): 0.00; OR71a response (VUAA1-normalized) at 1 μM (Drosophila OR71a; VOC concentration 1 μM): 0.00; OR71a response (VUAA1-normalized) at 10 μM (Drosophila OR71a; VOC concentration 10 μM): 0.00; OR71a response (VUAA1-normalized) at 100 μM (Drosophila OR71a; VOC concentration 100 μM): 0.00
7 | C=C1CCC2CC1C2(C)C (stereo not drawn) [beta-pinene] | 6.58 | 5 | 0 | 0.0658 | 0.05 | 0.00 | 0.06581 | 0.05055 | 0 | 0 | 0 | 0 | 0.0344 | 0.0361 | 0.00 | 0 | 0 | 0 |  |  | 
